According to PMC6917776, “Discovery of a chemical probe for PRDM9” (Nature Communications, 2019):
Where two headings read alike, the source gives them in different places.

Experiment: CelltiterGlo viability cell assay
Assay type: cell-based
Settings: human
Method in brief: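 CelltiterGlo luminescence, day 3 and day 6 readouts; compound 0.01–30 μM; data normalized to DMSO; n=3 biological replicates ± SEM.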

[1] = MDA-MB-436 breast cancer cells, MDA MB436, 3 day, read-out: viability Replicate 2
[2] = MDA-MB-436 breast cancer cells, MDA MB436, 3 day, read-out: viability Replicate 3
[3] = MDA-MB-436 breast cancer cells, MDA MB436, 3 day, read-out: viability Average
[4] = MDA-MB-436 breast cancer cells, MDA MB436, 3 day, read-out: viability Replicate 1
[5] = MDA-MB-436 breast cancer cells, MDA MB436, 6 day, read-out: viability Average
[6] = MDA-MB-436 breast cancer cells, MDA MB436, 6 day, read-out: viability Replicate 1
[7] = MDA-MB-436 breast cancer cells, MDA MB436, 6 day, read-out: viability Replicate 2
[8] = MDA-MB-436 breast cancer cells, MDA MB436, 6 day, read-out: viability Replicate 3
[9] = MDA-MB-436 cells, MDA MB436, 3 day, read-out: viability Replicate 1
[10] = MDA-MB-436 cells, MDA MB436, 3 day, read-out: viability Replicate 2
[11] = RPMI-8226 cells (multiple myeloma line), 8226, 3 day, read-out: viability Average
[12] = RPMI-8226 cells (multiple myeloma line), 8226, 3 day, read-out: viability Replicate 1
[13] = RPMI-8226 cells (multiple myeloma line), 8226, 3 day, read-out: viability Replicate 2
[14] = RPMI-8226 cells (multiple myeloma line), 8226, 3 day, read-out: viability Replicate 3
[15] = RPMI-8226 cells (multiple myeloma line), 8226, 6 day, read-out: viability Average
[16] = RPMI-8226 cells (multiple myeloma line), 8226, 6 day, read-out: viability Replicate 1
[17] = RPMI-8226 cells (multiple myeloma line), 8226, 6 day, read-out: viability Replicate 2
[18] = RPMI-8226 cells (multiple myeloma line), 8226, 6 day, read-out: viability Replicate 3
[19] = RPMI-8226 cells, 8226, 3 day, read-out: viability Average
[20] = RPMI-8226 cells, 8226, 3 day, read-out: viability Replicate 1
[21] = RPMI-8226 cells, 8226, 3 day, read-out: viability Replicate 2
[22] = RPMI-8226 cells, 8226, 3 day, read-out: viability Replicate 3
[23] = RPMI-8226 multiple myeloma cells, 8226, 3 day, read-out: viability Average

Compound: COc1cc(OC)cc(-c2noc(N3CCN(C)C4(CCN(c5ccnc(C)c5)CC4)C3)n2)c1 [MRK-740]
- viability at 3 day, 0.01 µM [1]: 98.8%
- viability at 3 day, 0.01 µM [2]: 92%
- viability at 3 day, 0.03 µM [3]: 105%
- viability at 3 day, 0.03 µM [4]: 124%
- viability at 3 day, 0.03 µM [1]: 99.1%
- viability at 3 day, 0.03 µM [2]: 92%
- viability at 3 day, 0.3 µM [3]: 94.8%
- viability at 3 day, 0.3 µM [2]: 92.8%
- viability at 3 day, 1 µM [3]: 104%
- viability at 3 day, 1 µM [4]: 114%
- viability at 3 day, 1 µM [1]: 105%
- viability at 3 day, 1 µM [2]: 93.4%
- viability at 3 day, 3 µM [3]: 104%
- viability at 3 day, 3 µM [4]: 120%
- viability at 3 day, 3 µM [1]: 100%
- viability at 3 day, 3 µM [2]: 91.2%
- viability at 3 day, 9.5 µM [3]: 94.9%
- viability at 3 day, 9.5 µM [4]: 108%
- viability at 3 day, 9.5 µM [1]: 89.3%
- viability at 3 day, 9.5 µM [2]: 87.6%
- viability at 3 day, 30 µM [3]: 51.5%
- viability at 3 day, 30 µM [4]: 60.8%
- viability at 3 day, 30 µM [1]: 50%
- viability at 3 day, 30 µM [2]: 43.6%
- viability at 6 day, 0.01 µM [5]: 103%
- viability at 6 day, 0.01 µM [6]: 97.8%
- viability at 6 day, 0.01 µM [7]: 106%
- viability at 6 day, 0.01 µM [8]: 107%
- viability at 6 day, 0.03 µM [5]: 102%
- viability at 6 day, 0.03 µM [6]: 99.8%
- viability at 6 day, 0.03 µM [7]: 100%
- viability at 6 day, 0.03 µM [8]: 106%
- viability at 6 day, 0.1 µM [5]: 104%
- viability at 6 day, 0.1 µM [6]: 105%
- viability at 6 day, 0.1 µM [7]: 101%
- viability at 6 day, 0.1 µM [8]: 106%
- viability at 6 day, 0.3 µM [5]: 107%
- viability at 6 day, 0.3 µM [6]: 108%
- viability at 6 day, 0.3 µM [7]: 105%
- viability at 6 day, 0.3 µM [8]: 109%
- viability at 6 day, 1 µM [5]: 112%
- viability at 6 day, 1 µM [6]: 109%
- viability at 6 day, 1 µM [7]: 116%
- viability at 6 day, 1 µM [8]: 111%
- viability at 6 day, 3 µM [5]: 113%
- viability at 6 day, 3 µM [6]: 115%
- viability at 6 day, 3 µM [7]: 112%
- viability at 6 day, 3 µM [8]: 112%
- viability at 6 day, 9.5 µM [5]: 70.8%
- viability at 6 day, 9.5 µM [6]: 69.6%
- viability at 6 day, 9.5 µM [7]: 71%
- viability at 6 day, 9.5 µM [8]: 71.9%
- viability at 6 day, 30 µM [5]: 35.6%
- viability at 6 day, 30 µM [6]: 34.7%
- viability at 6 day, 30 µM [7]: 35.7%
- viability at 6 day, 30 µM [8]: 36.5%
- viability at 3 day, 0.1 µM (MDA-MB-436 cells, MDA MB436, 3 day, read-out: viability Average): 105%
- viability at 3 day, 0.1 µM [9]: 123%
- viability at 3 day, 0.1 µM [10]: 102%
- viability at 3 day, 0.1 µM (MDA-MB-436 cells, MDA MB436, 3 day, read-out: viability Replicate 3): 90.1%
- viability at 3 day, 0.3 µM [9]: 91.5%
- viability at 3 day, 0.3 µM [10]: 100%
- viability at 3 day, 9.5 µM [11]: 98.3%
- viability at 3 day, 9.5 µM [12]: 105%
- viability at 3 day, 9.5 µM [13]: 96.6%
- viability at 3 day, 9.5 µM [14]: 93.4%
- viability at 3 day, 30 µM [11]: 54.9%
- viability at 3 day, 30 µM [12]: 74.2%
- viability at 3 day, 30 µM [13]: 34.5%
- viability at 3 day, 30 µM [14]: 56%
- viability at 6 day, 0.01 µM [15]: 102%
- viability at 6 day, 0.01 µM [16]: 101%
- viability at 6 day, 0.01 µM [17]: 102%
- viability at 6 day, 0.01 µM [18]: 102%
- viability at 6 day, 0.03 µM [15]: 101%
- viability at 6 day, 0.03 µM [16]: 100%
- viability at 6 day, 0.03 µM [17]: 101%
- viability at 6 day, 0.03 µM [18]: 102%
- viability at 6 day, 0.1 µM [15]: 100%
- viability at 6 day, 0.1 µM [16]: 96.9%
- viability at 6 day, 0.1 µM [17]: 102%
- viability at 6 day, 0.1 µM [18]: 102%
- viability at 3 day, 0.01 µM [19]: 98.4%
- viability at 3 day, 0.01 µM [20]: 97.7%
- viability at 3 day, 0.01 µM [21]: 100%
- viability at 3 day, 0.01 µM [22]: 97.6%
- viability at 3 day, 0.03 µM [19]: 99.5%
- viability at 3 day, 0.03 µM [20]: 97.9%
- viability at 3 day, 0.03 µM [21]: 100%
- viability at 3 day, 0.03 µM [22]: 100%
- viability at 3 day, 0.1 µM [23]: 101%
- viability at 3 day, 0.1 µM (RPMI-8226 multiple myeloma cells, 8226, 3 day, read-out: viability Replicate 1): 99.2%
- viability at 3 day, 0.1 µM (RPMI-8226 multiple myeloma cells, 8226, 3 day, read-out: viability Replicate 2): 101%
- viability at 3 day, 0.1 µM (RPMI-8226 multiple myeloma cells, 8226, 3 day, read-out: viability Replicate 3): 103%
- viability at 3 day, 0.3 µM [23]: 102%
